Assay results published in PMC7821884, “BRAF inhibition protects against hearing loss in mice” (Science Advances, 2020).

How the values were obtained:
SHP-77 small cell = assay: Tumor Cell Titer-Glo viability assay, SHP-77; format: cell-based, human
From the text: (§1) In clinical settings, cisplatin is used to treat several tumor types, including neuroblastoma and lung carcinoma. […] Medium-alone–, cisplatin-alone–, and dabrafenib-alone–treated cells were used as controls, and viability was reported as percent survival compared to medium alone (Fig. 4E).
(§2) Three human neuroblastoma cell lines IMR-32, SH-SY5Y, and, SK-N-AS, as well as three human lung carcinoma cell lines SHP-77 small cell, H1155 non–small cell, and A549 non–small cell, were used to determine the compounds’ effect on cisplatin’s tumor-killing efficacy ([77]–[83]). Cell lines were purchased from the American Type Culture Collection (ATCC), and cell culture was conducted according to ATCC specifications. Neuroblastoma cell lines IMR-32 and SH-SY5Y are maintained in Dulbecco’s modified Eagle’s medium (DMEM) 1× with glucose (4.5 g/liter), L-glutamine, and sodium pyruvate (10-013-CV, Corning) with 10% fetal bovine serum (FBS) (35011132, Corning) and ampicillin (50 μg/ml; A5354-10ML, Sigma-Aldrich) added. The SK-N-AS cell line is maintained in DMEM 1× with D-glucose (4.5 g/liter), L-glutamine, and 25 mM Hepes (12430-054, Gibco) with 10% FBS, 0.1 mM nonessential amino acids, and ampicillin (50 μg/ml) added. A549 cells are maintained in F-12K medium with L-glutamine (30-2004, ATCC) with 10% FBS and ampicillin (50 μg/ml) added. […]

[1] = cited from earlier work
HEI-OC1 cells = assay: Cell Titer-Glo cell viability assay, compound alone; format: cell-based; conditions: all concentrations tested
From the text: All compounds were further characterized via Cell Titer-Glo cell viability assay to determine toxicity of the compound alone in HEI-OC1 cells (table S1 and dataset in the Supplementary Materials). […] The other BRAF inhibitors had similar IC50 in the micromolar range and were nontoxic to cells (table S1).
In these screens, caspase-3 cleavage was chosen as the end point indicating cisplatin-induced apoptosis, because it allowed the inhibition of cell death to be monitored at the level of any molecular target upstream of caspase-3 cleavage in the HEI-OC1 cell line. Cells were plated at a previously optimized concentration of 1600 cells per well in medium without γ-interferon to limit proliferation and tested against 50 μM cisplatin based on a previous dose–response curve. Tested compounds were dissolved in DMSO before addition to medium with a final DMSO concentration of <0.5%. The screens are described in detail in our previous publications ([12], [13]). […] Pifithrin-α was added to each plate as a screening quality control. The linearity of the Caspase-Glo 3/7 (Promega) assay, which enables the measurement of light emitted as a result of caspase-3/7 cleavage and is suitable for HTS, was validated, and it was verified that 0.5% DMSO had no effect on the cell death kinetics. Compounds were screened in triplicate at final concentrations ranging from 1 nM to 85 μM and incubated for 22 hours. […]

IMR-32 = assay: Tumor Cell Titer-Glo viability assay, IMR-32; format: cell-based, human; conditions: IMR-32, 35 μM + 15 μM cisplatin, 48 hours
From the text: as §1, §2

## CC(C)(C)c1nc(-c2cccc(NS(=O)(=O)c3c(F)cccc3F)c2F)c(-c2ccnc(N)n2)s1 [dabrafenib]
SHP-77 small cell; SHP-77, 35 μM + 15 μM cisplatin, 48 hours
  effect on tumor cell death when combined with cisplatin: increased tumor cell death
SHP-77 small cell; SHP-77, 35 μM, no cisplatin
  cell survival, drug treatment alone: significant inhibition
[1]
  half-life in circulation: roughly 8 hours
HEI-OC1 cells
  toxicity of the compound alone, cell viability assay: nontoxic
IMR-32
  effect on tumor cell death when combined with cisplatin: increased tumor cell death
